From ChEMBL document CHEMBL2390863, “Synthesis and evaluation of 4-substituted coumarins as novel acetylcholinesterase inhibitors” (Eur J Med Chem, 2013) come the findings set out here.

One experiment addresses Cholinesterase (Equus caballus, UniProt P81908). Put plainly: Inhibition of equine serum BChE using butylthiocholine iodide as substrate preincubated for 10 mins prior to substrate addition by Ellman's method.
Another experiment addresses Acetylcholinesterase (Electrophorus electricus, UniProt O42275). As to the kind of experiment: Inhibition of electric eel AChE using acetylthiocholine iodide as substrate preincubated for 10 mins prior to substrate addition by Ellman's method. In general terms: Ellman's reagent forms a yellow product with free thiols.
Experiment [1] in a line: Selectivity ratio of IC50 for equine serum BChE to IC50 for electric eel AChE.
Experiment [2] is described as follows: Antioxidant activity assessed as Fe2+ formation by FRAP assay. The format is functional.

Some results are limits rather than exact numbers.

Cholinesterase, sequence (P81908 whole entry): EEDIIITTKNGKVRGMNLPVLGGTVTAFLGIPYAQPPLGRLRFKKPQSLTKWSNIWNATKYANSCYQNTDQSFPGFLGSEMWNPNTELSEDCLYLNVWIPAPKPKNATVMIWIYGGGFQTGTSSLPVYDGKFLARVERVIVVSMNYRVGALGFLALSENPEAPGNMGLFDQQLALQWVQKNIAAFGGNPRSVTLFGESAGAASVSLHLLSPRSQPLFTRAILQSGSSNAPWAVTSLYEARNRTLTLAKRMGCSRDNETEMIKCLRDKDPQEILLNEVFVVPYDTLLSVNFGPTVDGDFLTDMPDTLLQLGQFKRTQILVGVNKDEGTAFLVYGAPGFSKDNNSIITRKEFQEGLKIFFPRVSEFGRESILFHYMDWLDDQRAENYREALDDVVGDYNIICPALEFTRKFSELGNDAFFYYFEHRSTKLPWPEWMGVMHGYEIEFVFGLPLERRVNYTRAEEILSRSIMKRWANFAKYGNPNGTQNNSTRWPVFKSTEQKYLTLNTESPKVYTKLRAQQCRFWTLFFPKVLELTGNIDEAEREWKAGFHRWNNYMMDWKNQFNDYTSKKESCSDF
Acetylcholinesterase, sequence (O42275 whole entry): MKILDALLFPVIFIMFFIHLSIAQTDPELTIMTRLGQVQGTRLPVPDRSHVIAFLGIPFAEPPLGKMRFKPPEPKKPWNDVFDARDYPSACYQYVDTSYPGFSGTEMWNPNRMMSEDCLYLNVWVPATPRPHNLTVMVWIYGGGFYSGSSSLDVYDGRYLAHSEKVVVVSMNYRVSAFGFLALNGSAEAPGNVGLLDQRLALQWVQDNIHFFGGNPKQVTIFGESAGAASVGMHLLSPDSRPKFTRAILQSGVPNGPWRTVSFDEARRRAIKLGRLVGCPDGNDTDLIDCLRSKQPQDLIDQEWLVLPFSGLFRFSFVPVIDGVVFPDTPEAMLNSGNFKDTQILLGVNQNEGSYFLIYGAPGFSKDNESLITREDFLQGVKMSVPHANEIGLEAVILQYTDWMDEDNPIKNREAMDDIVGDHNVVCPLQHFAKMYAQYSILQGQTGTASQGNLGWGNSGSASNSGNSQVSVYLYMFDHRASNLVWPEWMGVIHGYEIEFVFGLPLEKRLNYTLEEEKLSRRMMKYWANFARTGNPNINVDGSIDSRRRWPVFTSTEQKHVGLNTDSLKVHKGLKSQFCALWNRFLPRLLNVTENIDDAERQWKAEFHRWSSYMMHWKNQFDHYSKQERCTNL

In the case of `O=C(CCCOc1cc(=O)oc2ccccc12)NC1CCN(Cc2ccccc2)CC1`, the IC50 (commonly the concentration that gives 50% inhibition) against Cholinesterase was 41 µM; against Acetylcholinesterase, 2.37 µM.

As for `O=C(CCCOc1cc(=O)oc2ccccc12)N1CCC(Cc2ccccc2)CC1`, the half-maximal inhibitory concentration (IC50) worked out at 76 µM at Cholinesterase and 8 µM against Acetylcholinesterase.

Take `O=C(COc1cc(=O)oc2ccccc12)N1CCN(c2ccc(F)cc2)CC1`: the Ratio IC50 in experiment [1] was found to be 34. For the same molecule, the IC50 on Cholinesterase is 76 µM; against Acetylcholinesterase it was 2.1 µM.

`O=C(CCCOc1cc(=O)oc2ccccc12)N1CCN(c2ccc(Cl)c(Cl)c2)CC1`: the 50% inhibitory concentration (IC50) against Cholinesterase and on Acetylcholinesterase was above 100 µM in each case.

Regarding `O=C(COc1cc(=O)oc2ccccc12)N1CCN(c2ccc(Cl)c(Cl)c2)CC1`, the Ratio IC50 in experiment [1] worked out at 34. Moreover, the values for the concentration for half-maximal inhibition (IC50) at Cholinesterase and against Acetylcholinesterase were 89 µM and 2.3 µM, respectively.

In the case of `O=C(COc1cc(=O)oc2ccccc12)N1CCC(Cc2ccccc2)CC1`, the values for the IC50 against Cholinesterase and against Acetylcholinesterase were 65 µM and 3.4 µM, respectively.

As to `O=C(COc1cc(=O)oc2ccccc12)NC1CCN(Cc2ccccc2)CC1`, the Ratio IC50 in experiment [1] is 37. The IC50 against Cholinesterase came to 45 µM; at Acetylcholinesterase, 1.2 µM.

In the case of `O=C(COc1cc(=O)oc2ccccc12)N1CCC(O)(c2ccc(Br)cc2)CC1`, the IC50 at Cholinesterase and against Acetylcholinesterase was above 100 µM in each case.

Take `O=C(CCCOc1cc(=O)oc2ccccc12)N1CCN(c2ccccc2O)CC1`: in experiment [2], the Activity is 770 mmol/g. Moreover, the IC50 on Cholinesterase and at Acetylcholinesterase was above 100 µM throughout.

On to `COc1ccc(CCNC(=O)CCCOc2cc(=O)oc3ccccc23)cc1OC`, for which the IC50 against Cholinesterase and against Acetylcholinesterase was above 100 µM throughout.

Regarding `O=C(COc1cc(=O)oc2ccccc12)N1CCN(c2ccccc2)CC1`, the Ratio IC50 in experiment [1] came to 34. Further, the IC50 on Cholinesterase is above 100 µM; on Acetylcholinesterase, 2.9 µM.

In the case of `O=C(COc1cc(=O)oc2ccccc12)N1CCN(c2ccccc2F)CC1`, the results for the IC50 against Cholinesterase and against Acetylcholinesterase were above 100 µM and 12.1 µM, respectively.

Consider `O=C(CCCOc1cc(=O)oc2ccccc12)N1CCN(c2ccc(F)cc2)CC1`, for which the IC50 at Cholinesterase and against Acetylcholinesterase was above 100 µM throughout.

As to `O=C(CCCOc1cc(=O)oc2ccccc12)N1CCN(c2ccccc2)CC1`, the IC50 against Cholinesterase and at Acetylcholinesterase was above 100 µM in each case.

For `O=C(COc1cc(=O)oc2ccccc12)N1CCC(O)(c2ccc(Cl)cc2)CC1`, the IC50 against Cholinesterase and against Acetylcholinesterase was above 100 µM in each case.

`O=C(CCCOc1cc(=O)oc2ccccc12)N1CCC(O)(c2ccc(Br)cc2)CC1`: the IC50 on Cholinesterase and against Acetylcholinesterase was above 100 µM each time.

For `O=C1O[C@H]([C@@H](O)CO)C(O)=C1O`, the Activity in experiment [2] was 2250 mmol/g.

On to `O=C(CCCOc1cc(=O)oc2ccccc12)N1CCN(c2ccccc2F)CC1`, for which the half-maximal inhibitory concentration (IC50) against Cholinesterase and against Acetylcholinesterase was above 100 µM throughout.

In the case of `O=C(COc1cc(=O)oc2ccccc12)N1CCN(c2ccccc2O)CC1`, in experiment [2], the Activity was determined as 840 mmol/g. The IC50 was above 100 µM against Cholinesterase and 21.2 µM against Acetylcholinesterase.

Consider `O=C(CCCOc1cc(=O)oc2ccccc12)N1CCC(O)(c2ccc(Cl)cc2)CC1`, for which the IC50 on Cholinesterase and on Acetylcholinesterase was above 100 µM in each case.
